Measurements taken from patent EP4122461A1 (priority 2021, dated 2023).

How the values were obtained:
[1] = test system: SARS-2-S-driven cell entry; format: cell-based, SARS-CoV-2
[2] = test system: SARS-CoV-2 isolate hCoV-19/Germany/FI1103201/2020; format: cell-based; details: PCLS from a single donor; Fig. 1C
[3] = across a 100-fold dose range; cohort of healthy subjects; cited from earlier work
[4] = blood and urine; cited from earlier work
[5] = in vivo; cited from earlier work

Row | Compound | IC50 [1] [nM] | inhibitory effects in human PCLS [2] | SARS-CoV-2 cell entry is inhibited [1] [%] | tolerability [3] | stability of ester and amide groups [4] | plasma distribution and elimination [5]
1 | CN(C)C(=O)COC(=O)Cc1ccc(OC(=O)c2ccc(NC(=N)N)cc2)cc1 [Camostat, camostat] | 151 | comparable | – | – | – | –
2 | N=C(N)c1ccc2cc(OC(=O)c3ccc(N=C(N)N)cc3)ccc2c1 [Nafamostat, nafamostat] | 11.8 | – | – | – | – | –
3 | COC(=O)[C@H](Cc1cccc(C(=N)N)c1)[C@@H](C)NC(=O)c1ccc(-c2cc[n+]([O-])cc2)cc1 [Otamixaban, otamixaban] | 18700 | comparable | 36 | well tolerated | stable | rapid plasma distribution and elimination
